Laboratory results reported in patent publication US20230003720A1 (priority 2016, published 2023).

How the values were obtained:
mOR18-2 = molecular target: T1, mOR18-2 (Mus musculus, UniProt Q8VBV9); format: cell-based
T1 construct: expressed in transfected cells
T1 sequence (Q8VBV9 1-320): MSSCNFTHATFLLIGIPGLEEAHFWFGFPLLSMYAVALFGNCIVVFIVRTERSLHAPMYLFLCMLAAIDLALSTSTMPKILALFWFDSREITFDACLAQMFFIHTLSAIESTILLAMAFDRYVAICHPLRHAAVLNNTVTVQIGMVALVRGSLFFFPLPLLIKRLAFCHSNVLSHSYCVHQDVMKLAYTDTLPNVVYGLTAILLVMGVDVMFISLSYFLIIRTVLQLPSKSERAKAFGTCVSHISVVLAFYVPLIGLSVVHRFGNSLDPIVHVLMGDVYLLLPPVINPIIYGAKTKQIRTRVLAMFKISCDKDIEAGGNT

mOR178-1 = format: cell-based, mouse
mOR18-1 = format: cell-based, Mus musculus
OR2W1 = molecular target: T2, OR2W1 (Homo sapiens, UniProt Q9Y3N9); format: cell-based
T2 construct: expressed in transfected cells
T2 sequence (Q9Y3N9 1-320): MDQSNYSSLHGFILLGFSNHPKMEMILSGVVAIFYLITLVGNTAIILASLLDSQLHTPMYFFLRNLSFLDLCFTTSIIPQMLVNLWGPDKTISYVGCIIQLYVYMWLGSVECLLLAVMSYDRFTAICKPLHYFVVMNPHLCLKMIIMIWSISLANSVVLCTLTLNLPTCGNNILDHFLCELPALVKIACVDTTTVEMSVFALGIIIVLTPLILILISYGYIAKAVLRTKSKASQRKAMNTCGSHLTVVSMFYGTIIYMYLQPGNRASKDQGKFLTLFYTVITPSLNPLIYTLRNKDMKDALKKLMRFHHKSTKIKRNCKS

Measured: receptor response as measured levels of luminescence

CCN(CC)C(=O)[C@@H]1C=C2c3cccc4[nH]cc(c34)C[C@H]2N(C)C1 [LSD]
responded: all assays above

c1ccc(C2(N3CCCCC3)CCCCC2)cc1 [PCP]
responded: all assays above

CC(=O)Oc1ccc2c3c1O[C@H]1[C@@H](OC(C)=O)C=C[C@H]4[C@@H](C2)N(C)CC[C@@]341 [heroine]
responded: all assays above
